# Data published in PMC6273429, “Pharmacokinetics of Tyrosol Metabolites in Rats” (Molecules, 2016).
# Where two headings read alike, the source gives them in different places.
# Columns and labels:
# [1] = Tissue distribution of tyrosol-derived metabolites after oral administration of tyrosol; format: in vivo, Sprague-Dawley rats
# Method: To study the tissue distribution of tyrosol metabolites, organs were collected at different time points following oral administration of tyrosol. T4S and M2 were detected in each tissue within 1 h after tyrosol administration (Figure 5A,B). […] These findings indicate that the metabolites are mainly excreted by the kidneys through the liver. Specifically, we propose that the rapid uptake of tyrosol is followed by its sulfation in the liver.
# Figure 5 Tissue distribution of tyrosol-4-sulfate (A) and M2 (B). Tissue samples (heart, kidney, spleen, lung, liver, epididymal adipose tissue) were collected at different time intervals post-dosing (0, 0.5, 1, 2, 4, 8, and 16 h) and the concentration of tyrosol-4-sulfate and M2 was measured. Each point represents mean ± SD (n = 3).
# (§1) Male Sprague-Dawley rats with average weights of 250 g were purchased from Orient Bio Inc. (Seoul, Korea) and acclimatized to laboratory conditions comprising a 12:12 h light-dark cycle, temperature of 24 °C, and humidity of 55% for one week. Animals were fed AIN-93G diet and provided water ad libitum during acclimation. On the dosing day, the rats were gavaged with tyrosol (100 or 200 mg/kg) as a suspension in polyethylene glycol. After the oral administration of a single dose of tyrosol to rats, blood samples were collected from the eye of the rats at different time points after dosing (0.25, 0.5, 1, 2, 4, 8, and 16 h). Urine samples were collected just before administration of tyrosol and during 0–1, 1–2, 2–4, 4–8, and 8–24 h after dosing. Liver, lung, heart, spleen, kidney, and epididymal adipose tissues were excised as quickly as possible and stored frozen at −80 °C until use. Animal studies were conducted in accordance with our institutional and national guidelines, and all experimental procedures were approved by the Korea Food Research Institute Animal Care and Use Committee (KFRI-IACUC, #2015-0016).
# Each tissue was thawed, rinsed with ice-cold saline, blotted dry, weighed, and homogenized (1:1, w/v) in water using homogenizer (MP Fastprep instrument, MP Biomedical, Solon, OH, USA). The homogenates (300 µL) were transferred into clean tubes, methanol (700 µL) was added, and the tubes were vortex-mixed for 5 min. The supernatant was collected after centrifugation at 13,000 rpm for 15 min. The supernatant was evaporated to dryness at room temperature under a stream of nitrogen gas. The residue was resuspended in methanol (100 µL).
# (§2) HPLC analyses were performed on a Jasco high-performance liquid chromatography (HPLC) system (Jasco Corporation, Tokyo, Japan) equipped with a Jasco UV-2089 plus quaternary gradient pump, Jasco AS-2057 plus intelligent sample injector, Jasco UV-2075 UV/Vis detector, and Borwin chromatography software version 1.5. Separation was achieved using an XTerra RP18 column (4.6 × 250 mm, 5 µM, Waters) and a guard column. Elution was performed at a flow rate of 1.0 mL/min at 30 °C. The solvents for eluent were 1% (v/v) phosphoric acid (solvent A) and acetonitrile (solvent B). The solvent gradient changed according to the following conditions: 100% A to 95% A over 10 min, to 85% A over 10 min, to 70% A over 10 min, to 65% A over 5 min, to 90% A over 5 min, and to 100% A over 5 min, followed by 5 min of maintenance. The UV detector was set at a wavelength of 280 nm.
# [2] = Pharmacokinetics of tyrosol metabolites in rat plasma after single oral dose of tyrosol (HPLC); format: in vivo, Sprague-Dawley rats; settings: for Cmax / Tmax / half-life / AUC(0-t): male, Sprague-Dawley; for AUC(0-t): n = 3, read-out: AUC (0-8h)
# Method: To understand the time-dependent changes in the concentration of tyrosol metabolites, the level of metabolites in plasma samples was measured by HPLC at different time points (15, 30, 60, 120, and 240 min) after tyrosol administration. […] The inter- and intra-day precision and accuracy were determined by replicate analysis of the samples at two concentrations of each metabolite: 0.1 and 2 mg/mL tyrosol-4-sulfate. The stability of the metabolites was determined at room temperature over 24 h.
# as §1
# To 300 µL of serum, 700 µL of methanol was added, followed by vortex mixing for 5 min. After centrifugation at 13,000 rpm for 15 min, the supernatant was collected and injected into the HPLC or LC-MS system.
# as §2
# (§3) A non-compartmental pharmacokinetics analysis for each tyrosol metabolite was performed using PK solution software version 2.0 (Summit Research Services, Montrose, CO, USA). Cmax, Tmax, and T1/2 were estimated from the plasma concentration-time curve. The area under the curve (AUC) for the plasma concentration over time was calculated using the trapezoidal rule.
# [3] = Pharmacokinetics of tyrosol metabolites in rat urine after single oral dose of tyrosol (HPLC); format: in vivo, Sprague-Dawley rats; settings: for Tmax / half-life: male, Sprague-Dawley; for Tmax: rat, urine, po
# Method: Urine samples were collected at 0–1, 1–2, 2–4, 4–8, and 8–24 h after administration of tyrosol.
# as §1, §2, §3
# [4] = test system: human hepatoma HepG2 cells; parameters: method as in PMID 16366672; settings: cited from earlier work
compound,measurement,setting,value
"O=S(=O)(O)Oc1ccc(CCO)cc1 [T4S, tyrosol-4-sulfate]",time to detection in each tissue,[1]; rat tissues after oral tyrosol,≤ 1 h
same,detection in epididymal fat and the lungs,"[1]; rat, after oral tyrosol",not detected
same,time of elimination from organs and tissues,"[1]; rat, after oral tyrosol",≤ 4 h
same,tissues of greatest deposition / highest concentration by tissue weight,"[1]; rat, after oral tyrosol","liver, followed by the kidney and spleen"
same,tissues of greatest deposition / highest concentration by tissue weight,"[1]; rat, after oral tyrosol, listed as tyrosol-4-sulfate",liver and the kidney
same,time of uptake after oral administration of tyrosol,[2],≤ 1 h
same,Cmax,[2]; tyrosol oral 100 mg/kg b.w.,7900 ng/mL
same,Tmax,[2]; tyrosol oral 100 mg/kg b.w.,0.178 h
same,half-life,[2]; tyrosol oral 100 mg/kg b.w.,0.23 h
same,AUC(0-t),[2]; tyrosol oral 100 mg/kg b.w.,2500 ng·h/mL
same,Cmax,[2]; tyrosol oral 200 mg/kg b.w.,12100 ng/mL
same,Tmax,[2]; tyrosol oral 200 mg/kg b.w.,0.177 h
same,half-life,[2]; tyrosol oral 200 mg/kg b.w.,0.202 h
same,AUC(0-t),[2]; tyrosol oral 200 mg/kg b.w.,6600 ng·h/mL
same,time by which eliminated in urine,[3]; after oral tyrosol,≤ 12 h
same,Tmax,"[3]; 100 mg/kg, tyrosol oral 100 mg/kg b.w., read-out: Tmax",2 h
same,Tmax,"[3]; 200 mg/kg, tyrosol oral 200 mg/kg b.w., read-out: Tmax",2.9 h
same,Tmax,"[3]; 200 mg/kg, tyrosol oral 100 and 200 mg/kg, read-out: Tmax in urine (range over doses)",2 to 2.9 h
same,half-life,[3]; tyrosol oral 100 mg/kg b.w.,1.2 h
same,half-life,[3]; tyrosol oral 200 mg/kg b.w.,1.2 h
OCCc1ccc(O)cc1 [Tyrosol],detection of sulfated metabolites,[4],no detection
same,metabolism to glucuronide conjugates,[4],poorly metabolized
